In PMC8383266 (Biochemistry, 2021):

Target: BlaC (β-lactamase) (Mycobacterium tuberculosis, UniProt P9WKD3, G144S)
Type: biochemical

Structure (SMILES): NC(=O)[C@@H]1CC[C@@H]2CN1C(=O)N2OS(=O)(=O)O [avibactam]
- activity of BlaC G132S in the presence of avibactam (Figure S13, not shown): we found BlaC G132S is also more sensitive to avibactam
